The target in assay [1] is T1, C-X-C chemokine receptor type 1 (Homo sapiens, UniProt P25024).
T1 sequence (P25024 whole entry): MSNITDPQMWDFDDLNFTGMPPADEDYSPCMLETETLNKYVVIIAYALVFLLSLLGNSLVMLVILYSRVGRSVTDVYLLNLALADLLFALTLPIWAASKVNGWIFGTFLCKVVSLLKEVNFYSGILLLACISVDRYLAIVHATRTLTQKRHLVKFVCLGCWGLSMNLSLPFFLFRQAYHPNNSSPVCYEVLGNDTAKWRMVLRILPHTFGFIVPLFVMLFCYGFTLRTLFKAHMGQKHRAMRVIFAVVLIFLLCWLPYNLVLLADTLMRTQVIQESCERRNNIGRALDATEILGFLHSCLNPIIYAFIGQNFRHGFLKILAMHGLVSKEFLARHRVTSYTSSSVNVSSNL
Description: (§1) Assay Drug Dev Technol. 2007 February; 5(1); 137-44). In kind it is cell-based.

For assay [2], the target named is T2, C-X-C chemokine receptor type 2 (Homo sapiens, UniProt P25025).
T2 sequence (P25025 whole entry): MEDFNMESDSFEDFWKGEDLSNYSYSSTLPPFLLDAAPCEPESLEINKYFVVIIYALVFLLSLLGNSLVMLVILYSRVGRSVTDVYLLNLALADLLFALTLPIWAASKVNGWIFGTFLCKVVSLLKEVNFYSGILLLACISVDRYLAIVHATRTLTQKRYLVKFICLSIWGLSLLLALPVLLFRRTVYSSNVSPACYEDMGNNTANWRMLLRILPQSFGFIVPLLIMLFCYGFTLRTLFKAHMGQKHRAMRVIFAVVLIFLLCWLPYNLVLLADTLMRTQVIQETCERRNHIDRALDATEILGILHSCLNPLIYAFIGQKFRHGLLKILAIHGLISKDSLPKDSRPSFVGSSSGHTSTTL
The assay is described as §1. In kind it is cell-based.

In the case of `Cc1ccc(C(Nc2c(Nc3cccc(C(=O)N(C)C)c3O)c(=O)c2=O)C2(C)CCOCC2)o1` (configuration not stated), the IC50 in assay [1] was determined as 3.35 µM; in assay [2] it was 0.157 µM.

The record behind these values is ChEMBL document CHEMBL3886212, “Disubstituted 3,4-diamino-3-cyclobutene-1,2-dione compounds for use in the treatment of chemokine-mediated diseases” (2015).
